# Target: T1, histamine 3 receptor (H3R) (Homo sapiens, UniProt Q9Y5N1)
# T1 construct: expressed in transfected cells; host or cells: CHO cells (HR3-CHO cell line), membrane preparation
# Assay: Competition binding assay with 3H-(R)α-methylhistamine on membranes of the human HR3-CHO cell line
# Conditions: 3H(R)α-methylhistamine 1 nM, Ki calculated from IC50 by Cheng-Prusoff equation
# Method: Binding assay with ^3H-(R)α-methylhistamine
# Saturation binding experiments were performed using HR3-CHO membranes prepared as described in Takahashi, K, Tokita, S., Kotani, H. (2003) J. Pharmacol. Exp. Therapeutics 307, 213-218.
# An appropriate amount of membrane (60 to 80 μg protein/well) was incubated with increasing concentrations of ^3H(R)α-Methylhistamine di-hydrochloride (0.10 to 10 nM). Non-specific binding was determined using a […] excess of cold (R)α-methylhistamine dihydrobromide (500 nM final concentration). The incubation was carried out at room temperature (in deep-well plates shaking for three hours). The final volume in each well was 250 μl. The incubation was followed by rapid filtration on GF/B filters (pre-soaked with 100 μl of 0.5% PEI in Tris 50 mM shaking at 200 rpm for two hours). The filtration was made using a cell-harvester and the filter plates were then washed five times with ice cold washing buffer containing 0.5 M NaCl. After harvesting, the plates were dried at 55° C. for 60 min, then scintillation fluid (Microscint 40, 40 microl in each well) was added and the amount of radioactivity on the filter was determined with a Packard top-counter after shaking the plates for two hours at 200 rpm at room temperature.
# Binding Buffer: 50 mM Tris-HCl pH 7.4 and 5 mM MgCl2x6H2O pH 7.4. Washing Buffer: 50 mM Tris-HCl pH 7.4 and 5 mM MgCl2x6H2O and 0.5 M NaCl pH 7.4.
# Indirect measurement of affinity of H3R inverse agonists: twelve increasing concentrations (ranging from 10 μM to 0.3 nM) of the selected compounds were always tested in competition binding experiments using membrane of the human HR3-CHO cell line. An appropriate amount of protein, e.g. approximately 500 cpm binding of RAMH at Kd, were incubated for 1 hour at room temperature in 250 μl final volume in 96-well plates in presence of ^3H(R)α-methylhistamine (1 nM final concentration=Kd). […]
# All compounds were tested at a single concentration in duplicates. […] Ki's were calculated from IC50 based on Cheng-Prusoff equation (Cheng, Y, Prusoff, W H (1973) Biochem Pharmacol 22, 3099-3108).
# T1 sequence (Q9Y5N1 whole entry): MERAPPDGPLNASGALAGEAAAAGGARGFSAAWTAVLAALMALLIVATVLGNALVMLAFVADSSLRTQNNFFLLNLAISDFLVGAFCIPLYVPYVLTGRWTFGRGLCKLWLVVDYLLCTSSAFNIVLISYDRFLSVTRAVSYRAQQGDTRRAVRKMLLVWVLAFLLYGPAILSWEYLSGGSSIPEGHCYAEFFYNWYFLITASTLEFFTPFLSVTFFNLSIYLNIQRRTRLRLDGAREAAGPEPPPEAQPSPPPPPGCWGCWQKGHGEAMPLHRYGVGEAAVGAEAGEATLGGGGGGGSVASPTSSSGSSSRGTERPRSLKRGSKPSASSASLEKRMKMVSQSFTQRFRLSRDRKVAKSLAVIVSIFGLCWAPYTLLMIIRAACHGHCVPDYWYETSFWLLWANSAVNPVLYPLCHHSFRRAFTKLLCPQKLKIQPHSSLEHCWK
row,Ki [nM],Compound
1,40,"O=C(c1cc2cc(OCCCN3CC4CC4C3)ccc2[nH]1)N1CCOCC1 (stereo not drawn) [Example 5, {5-[3-(3-Aza-bicyclo[3.1.0]hex-3-yl)-propoxy]-1H-indol-2-yl}-morpholin-4-yl-methanone]"
2,26,"O=C(c1cc2cc(OCCCN3CC4CC4C3)ccc2n1CC(F)(F)F)N1CCOCC1 (stereo not drawn) [Example 6, [5-[3-(3-Aza-bicyclo[3.1.0]hex-3-yl)-propoxy]-1-(2,2,2-trifluoro-ethyl)-1H-indol-2-yl]-morpholin-4-yl-methanone]"
3,30,"CC(C)N1CCOC(COc2ccc3c(c2)cc(C(=O)N2CCOCC2)n3CC(F)(F)F)C1 (stereo not drawn) [Example 1, [5-(4-Isoopropyl-morpholin-2-ylmethoxy)-1-(2,2,2-trifluoro-ethyl)-1H-indol-2-yl]-morpholin-4-yl-methanone]"
